Measured values: patent US20260069581A1, “METHODS AND COMPOSITIONS FOR CANCER THERAPY” (OHIO STATE INNOVATION FOUNDATION, priority 2020, published 2026)

How the values were obtained:
[1] = in vivo; cited from earlier work
SIRT6-depleted cells = test: Phospho-H2A.X staining in shSIRT6 cells with KPT-9274; type: cell-based; conditions: SIRT6-depleted cells compared with scrambled control, in the presence of KPT-9274
Description: Thereafter, cells were fixed, permeabilized and stained with BV421 mouse anti-H2A.X (pS139) (Clone N1-431). Stained cells were analyzed by flow cytometry. Results are shown as mean±SEM of duplicates. *p<0.05. N.S.: not significant. […] Results are shown as mean±SEM of duplicates. *p<0.05. […] MOLM13 cells were treated with vehicle control, 0.4 μM or 0.8 μM AR-42 alone, 0.1 μM or 0.25 μM KPT-2974 alone and drug combination for 24 hours before being subject to Western blotting analysis of HR, NHEJ and ATM markers. GAPDH served as loading control. Results are representative of two independent experiments. In the FIG. the treatment concentrations, protein detected in the given Western blot, and molecular weight of the protein detected are as shown in the figure. […] Scrambled or shHDAC8-transduced MOLM13 cells were treated with vehicle, 0.1 μM or 0.25 μM KPT-2974 before being subject to immunoblotting analysis of DNA repair targets. GAPDH serves as loading control. Results are representative of two independent experiments. In the FIG. the treatment concentrations, protein detected in the given Western blot, and molecular weight of the protein detected are as shown in the figure. […] PAPR1 was immunoprecipitated and mono-ADP-ribosylation was detected by western blotting. […]
To elucidate the mechanism of the synergism between shSIRT6 and KPT-9274, the accumulation of phosph-H2A.X was measured. […]

[2] = tested on: shRNA-stable Kasumi-1 and MOLM13 cells; test: CFU serial replating assay of shRNA-stable cells with KPT-9274; type: cell-based, human
From the text: FIGS. 2A-2M show show representative data for genetic depletion of HDAC8 or SIRT6 increases vulnerability of AML cell lines to KPT-9274 treatment. FIGS. 2A-2D show data for knockout efficiency of CDS- and 3′UTR-targeting shRNAs in MOLM13 and Kasumi-1 cells as assessed with Western blotting (FIGS. 2A, 2D) with GAPDH as a loading control. Densitometric quantification of protein band intensity is shown (n=2) in FIGS. 2B, 2E. FIGS. 2E-2H show representative data for depletion of HDAC8 or SIRT6 (as indicated in graphs) and sensitization of AML cell lines to KPT-9274 treatment. Dose-response curves of shRNA-stable MOLM13 and Kasumi-1 cells for 24-hour and 48-hour treatments are plotted. Cell viability was measured with MTS. […] Scrambled or gene-targeting shRNA-stable MOLM13 or Kasumi-1 cells were treated with IC20 dose of KPT-9274 for 48 hour and stained with Annexin/PI for flow cytometry analysis. Data are shown as mean±SEM of % population from duplicates. FIGS. 2K-2L show representative data that KPT-9274 attenuates AML self-renewal and induces myeloid differentiation in HDAC8 or SIRT6-depleted cells. Quantification of the number of colonies formed by shRNA-stable Kasumi-1 and MOLM13 cells in the presence or absence of KPT-9274 in CFU assays. Indicated number of cells were seeded into Methocult and colonies were counted and replated by a double-blind approach after 7 days. Results are shown as mean±SEM of duplicates. *p<0.05. **p<0.01. […] For each condition, images were randomly taken from 6-12 fields of view. Scale bar=50 μm.
Colony-forming unit (CFU) assays. Age-matched cryopreserved primary cells from bone marrow and apheresis of AML patients with various co-mutations and CD34^+ healthy bone marrow cells were acquired from Ohio State University Comprehensive Cancer Center Leukemia Tissue Bank. […] Formed colonies were counted blindly after 7-14 days and re-plated at 10,000 cells/well. The images of colonies were captured with Echo revolving microscope. The images of Giemsa staining of cytospin preparations were acquired by CX43 Olympus inverted microscope. […]

[3] = Phase I trial; cited from earlier work
Kasumi-1 cells = test: MTS cell viability of shRNA-stable Kasumi-1 cells treated with KPT-9274; type: cell-based; conditions: Kasumi-1 scrambled control, 24 hour KPT-9274 treatment
From the text: FIGS. 2A-2M show show representative data for genetic depletion of HDAC8 or SIRT6 increases vulnerability of AML cell lines to KPT-9274 treatment. FIGS. 2A-2D show data for knockout efficiency of CDS- and 3′UTR-targeting shRNAs in MOLM13 and Kasumi-1 cells as assessed with Western blotting (FIGS. 2A, 2D) with GAPDH as a loading control. Densitometric quantification of protein band intensity is shown (n=2) in FIGS. 2B, 2E. FIGS. 2E-2H show representative data for depletion of HDAC8 or SIRT6 (as indicated in graphs) and sensitization of AML cell lines to KPT-9274 treatment. Dose-response curves of shRNA-stable MOLM13 and Kasumi-1 cells for 24-hour and 48-hour treatments are plotted. Cell viability was measured with MTS. […] Scrambled or gene-targeting shRNA-stable MOLM13 or Kasumi-1 cells were treated with IC20 dose of KPT-9274 for 48 hour and stained with Annexin/PI for flow cytometry analysis. Data are shown as mean±SEM of % population from duplicates. […] Quantification of the number of colonies formed by shRNA-stable Kasumi-1 and MOLM13 cells in the presence or absence of KPT-9274 in CFU assays. Indicated number of cells were seeded into Methocult and colonies were counted and replated by a double-blind approach after 7 days. […]
MTS assay. […] Plates were read by using a BioTek synergy H4 hybrid multimode microplate reader (Thermo Fisher Scientific) at 490 nM. […]

Row | SMILES | tolerability of dose [1] | DNA damage, phospho-H2A.X staining (SIRT6-depleted cells) | colony formation and long-term self-renewal ([2]; HDAC8 or SIRT6-depleted MOLM13 and Kasumi-1 cells) | cell differentiation (Giemsa staining of cytospin preparations) ([2]; KPT-9274 with depletion of HDAC8 or SIRT6, cells derived from CFU assays) | colony numbers vs vehicle control ([2]; scramble groups, sublethal doses of KPT-9274) | drug-related adverse events [3] | tolerability vs 1st generation NAMPTi [3] | IC50 (Kasumi-1 cells)
1 | CC(C)[C@H](C(=O)Nc1ccc(C(=O)NO)cc1)c1ccccc1 [AR-42, (S)—N-Hydroxy-4-(3-methyl-2-phenylbutanamido)benzamide] | tolerated | – | – | – | – | – | – | –
2 | Nc1ccc(/C=C/C(=O)NCc2cc3cc(-c4ccc(C(=O)N5CCC(F)(F)CC5)cc4)cc(-c4ccc(F)cc4)c3o2)cn1 [KPT-9274, (E)-3-(6-aminopyridin-3-yl)-N-[[5-[4-(4,4-difluoropiperidine-1-carbonyl)phenyl]-7-(4-fluorophenyl)-1-benzofuran-2-yl]methyl]prop-2-enamide] | – | increased phospho-H2A.X staining | suppressed colony formation | cooperatively differentiated AML cells | comparable | anemia and fatigue | better tolerated | did not achieve IC50
